These results are taken from patent US20230149504A1, “A[…] USE IN HUMAN VIRAL INFECTIONS” (DEBIOPHARM INTERNATIONAL SA, priority 2020, published 2023).

Data set [1] has as its system clinical isolate of SARS-CoV-2.
Data set [2] can be described thus: in vitro. The conditions noted are these: African green monkey.
Data set [3] can be described thus: in vitro. The conditions noted are these: African green monkey. The source holds these as a separate data set.
Data set [4] relates to SARS-CoV-2. The data set is described as follows: Example 1B: immunofluorescence (anti-dsRNA) quantification of SARS-CoV-2-infected Vero E6 cells. The format is cell-based. The settings on record: at 10 μM, MOI 0.4, 24 h (FIG. 3). On the procedure: FIG. 3 represents the experiment scheme of a SARS-CoV-2 infection of Vero E6 cells at an MOI of 0.4 and the percentage of infected cells assessed by immunofluorescence (IF) in the presence of increasing concentrations of alisporivir.
The anti-SARS-CoV-2 effectiveness of alisporivir was confirmed by immunofluorescence. Vero E6 cells were infected by SARS-CoV-2 at an MOI of 0.4 for 2 h in the presence of increasing concentrations of alisporivir (1, 5 and 10 μM). After virus removal, infected cells were incubated for 24 h in the presence of alisporivir and immunostained with an anti-double-stranded-RNA (dsRNA) antibody. Infected cells were quantified using ImageJ software.

In data set [5] the test system is SARS-Cov-2 (isolate from patient infected in Paris).
Data set [6] deals with SARS-Cov-1. The conditions noted are these: cited from earlier work.
Data set [7] deals with VeroE6 cells.

Each structure is given as a SMILES string. pEC50: −log10 of the molar value. Where only a bound is given, the exact number is not on record here.

The term pEC50 denotes −log10 of the EC50, conventionally taken in molar units. What is called EC90 is the concentration needed for an effect of 90%. `C/C=C/C[C@@H](C)[C@@H](O)[C@H]1C(=O)N[C@@H](CC)C(=O)N(C)[C@H](C)C(=O)N(CC)[C@@H](C(C)C)C(=O)N[C@@H](C(C)C)C(=O)N(C)[C@@H](CC(C)C)C(=O)N[C@@H](C)C(=O)N[C@H](C)C(=O)N(C)[C@@H](CC(C)C)C(=O)N(C)[C@@H](CC(C)C)C(=O)N(C)[C@@H](C(C)C)C(=O)N1C` [alisporivir, [D-MeAla]3-[EtVal]4-CsA]: in data set [1], the “maximum viral RNA reduction” value came to 2 log 10. Moreover, the therapeutic index result in data set [1] (clinical isolate of, 2 h) is reported as “more than 43”. In data set [1] (clinical isolate of, 48 h), this compound showed a pEC50 of 6.34 and an EC90 of 3.1 µM. For the same compound, the selectivity ratio in data set [2] is above 37. The compound further had a CC50 in data set [3] above 20 µM. In addition, the “inhibition of the number of SARS-CoV-2-infected cells (immunofluorescence)” value in data set [4] was “complete inhibition”. Moreover, in data set [5], the pEC50 is 6.27 and the “percentage of inhibition of SARS-CoV-2 RNA production in cell culture supernatant” value is given as above 90%. Further, in data set [6], the “fold higher EC50 against SARS-Cov-1 than for HCV replicon” value is reported as 10.-50 fold. Also, the pEC50 in data set [6] (read-out: EC50 in vitro against different SARS-Cov-1) is 5.00 to 5.70. The cytotoxicity result in data set [7] is reported as “not cytotoxic”.
